Assay: Odour Detection Threshold (ODT) / odour threshold
Conditions: for ODT: Odour Detection Threshold, table of compounds of Formula I

| SMILES | Odour threshold [ng/L air] | ODT [ng/L] |
| --- | --- | --- |
| CC(C)/C=C/c1ccc2c(c1)OCC(=O)CO2 [Example 3, (1′E)-7-(3′-Methylbut-1′-enyl)-2H-benzo[b][1,4]dioxepin-3(4H)-one] | 0.015 | 0.015 |
| CC/C=C/c1ccc2c(c1)OCC(=O)CO2 [Example 1, (1′E)-7-(But-1′-enyl)-2H-benzo[b][1,4]dioxepin-3(4H)-one] | 0.00157 | 0.00157 |
| CC(C)(C)C/C=C/c1ccc2c(c1)OCC(=O)CO2 [Example 6, (1′E)-7-(4′,4′-Dimethylpent-1′-enyl)-2H-benzo[b][1,4]dioxepin-3(4H)-one] | 0.042 | 0.042 |
| CC(C)C/C=C/c1ccc2c(c1)OCC(=O)CO2 [Example 2, (1′E)-7-(4′-Methylpent-1′-enyl)-2H-benzo[b][1,4]dioxepin-3(4H)-one] | 0.00025 | 0.00025 |
| C/C=C/C=C/c1ccc2c(c1)OCC(=O)CO2 [Example 4, (1′E,3′E)-7-(Penta-1′,3′-dienyl)-2H-benzo[b][1,4]dioxepin-3(4H)-one] | 0.000141 | 0.000141 |
| CC(C)=Cc1ccc2c(c1)OCC(=O)CO2 [Example 7, (1′E)-7-(2′-Methylprop-1′-enyl)-2H-benzo[b][1,4]dioxepin-3(4H)-one] | 0.42 | 0.42 |
| CCC/C=C/c1ccc2c(c1)OCC(=O)CO2 [Example 5, (1′E)-7-(Pent-1′-enyl)-2H-benzo[b][1,4]dioxepin-3(4H)-one] | 0.00314 | 0.00314 |
| CCC(C)/C=C/c1ccc2c(c1)OCC(=O)CO2 (stereo not shown) [Example 8, (1′E)-7-(3′-Methylpent-1′-enyl)-2H-benzo[b][1,4]-dioxepin-3(4H)-one] | 0.021 | 0.021 |

Source: patent US20120309670A1, “7-(ALK-1'-ENYL)-2H-BENZO[B][1,4]DIOXEPIN-3(4H)-ONES AND THEIR USE IN FRAGRANCE APPLICATIONS” (Givaudan SA, priority 2010, published 2012)
